In patent US20080033017A1, “COMPOSITIONS FOR ENHANCED ACARICIDAL ACTIVITY” (priority 2000, published 2008):
Where “and” joins values, the source holds several entries; their conditions need not be identical. Identical values can stand only once.

What was measured:
D. VARIABILIS = experiment: Comparative tick control on dogs, D. variabilis, percent control; format: in vivo, Dermacentor variabilis; design: concentration or dose not given beside the values
From the text: (§1) The purpose of this study was to was to determine comparative flea and tick control over a 30 day interval of a combination application of a pyrethroid and a chloronicotinyl insecticide applied dermally to dogs. This combination was compared with permethrin alone, imidacloprid alone, fipronil and selamectin. The latter two compounds are present in products that currently carry claims for both tick and flea control
(§2) Thirty-six dogs were divided into six groups of 6 dogs per group. Each dog received a single topically-applied treatment of the either “Kiltix”, a product available from Bayer Corporation containing 45% w/w permethrin, Advantage®, a product available from Bayer Corporation containing 9.1% w/w imidacloprid, a combination of Kiltix and Advantage containing 45% w/w permethrin+9.1% w/w imidacloprid, Top Spot), a product available from Merial containing 9.7% fipronil or Revolution®, a product available from Pfizer Inc. containing 12% w/v selamectin in accordance with the appropriate dose and label instructions for the various product applications. Control dogs remained untreated. All products were provided in the commercial unit dose applicator tubes.
(§3) The dogs were bathed with a mild non-medicated shampoo and thoroughly combed to remove any existing fleas or ticks 7 to 14 days prior to treatment. The dogs were infested with 100 unfed adult ticks (50 Dermacentor variabilis and 50 Rhipiciphalus sanguineus) and 100 unfed adult fleas on Day −3. Live fleas and ticks were counted on Day −1. The dogs were ranked according to total pretreatment live tick counts from highest to lowest. The 36 dogs with the highest counts were selected for the study. Each consecutive group of 6 dogs comprised one block. Treatment was randomly assigned within each block of dogs.
(§4) Each dog was examined visually for fleas and ticks on Days 1, 7, 14, 21, and 28 following treatment. The hair was parted with the thumbs and fingers to count fleas and ticks. Live tick counts were recorded by species. Live ticks only were counted visually on Days 2, 8, 15, 22, and 29. The dogs were combed on Days 3, 9, 16, 23, and 30. All remaining live fleas and ticks were counted and removed.

R. SANGUINEUS = experiment: Comparative tick control on dogs, R. sanguineus, percent control; format: in vivo, Rhipicephalus sanguineus; design: Percent control R. sanguineus: concentration or dose not given beside the values
From the text: as §1, §2, §3, §4

FLEAS (Siphoneptera) = experiment: Comparative flea control on dogs, percent control; format: in vivo; design: Percent control fleas: concentration or dose not given beside the values
From the text: as §1, §2, §3, §4

[1] = test system: both species of ticks (D. variabilis and R. sanguineus); experiment: Tick control on dogs, both species together; format: in vivo, Dermacentor variabilis and Rhipicephalus sanguineus
From the text: as §1
Thirty-six dogs were divided into six groups of 6 dogs per group. […]
The dogs were bathed with a mild non-medicated shampoo and thoroughly combed to remove any existing fleas or ticks 7 to 14 days prior to treatment. […] Live fleas and ticks were counted on Day −1. […]
Each dog was examined visually for fleas and ticks on Days 1, 7, 14, 21, and 28 following treatment. […] Live tick counts were recorded by species. Live ticks only were counted visually on Days 2, 8, 15, 22, and 29. […] All remaining live fleas and ticks were counted and removed.

[2] = Study Day 1, single topical treatment
[3] = Study Day 2, single topical treatment
[4] = Study Day 3, single topical treatment
[5] = Study Day 7, single topical treatment
[6] = Study Day 8, single topical treatment
[7] = Study Day 9, single topical treatment
[8] = Study Day 14, single topical treatment
[9] = Study Day 15, single topical treatment
[10] = Study Day 16, single topical treatment
[11] = Study Day 21, single topical treatment
[12] = Study Day 22, single topical treatment
[13] = Study Day 23, single topical treatment
[14] = Study Day 28, single topical treatment
[15] = Day 1, single topical treatment
[16] = Day 3, single topical treatment
[17] = Day 7, single topical treatment
[18] = Day 9, single topical treatment
[19] = Day 14, single topical treatment
[20] = Day 16, single topical treatment
[21] = Day 21, single topical treatment
[22] = Day 23, single topical treatment
[23] = Day 28, single topical treatment
[24] = Day 30, single topical treatment

| Compound | Percent control D. variabilis (D. VARIABILIS; [2]) | Percent control D. variabilis (D. VARIABILIS; [3]) | Percent control D. variabilis (D. VARIABILIS; [4]) [%] | Percent control D. variabilis (D. VARIABILIS; [5]) [%] | Percent control D. variabilis (D. VARIABILIS; [6]) [%] | Percent control D. variabilis (D. VARIABILIS; [7]) | Percent control D. variabilis (D. VARIABILIS; [8]) [%] | Percent control D. variabilis (D. VARIABILIS; [9]) [%] | Percent control D. variabilis (D. VARIABILIS; [10]) [%] | Percent control D. variabilis (D. VARIABILIS; [11]) [%] | Percent control D. variabilis (D. VARIABILIS; [12]) [%] | Percent control D. variabilis (D. VARIABILIS; [13]) [%] | Percent control D. variabilis (D. VARIABILIS; [14]) [%] | Percent control R. sanguineus (R. SANGUINEUS; [2]) [%] | Percent control R. sanguineus (R. SANGUINEUS; [3]) [%] | Percent control R. sanguineus (R. SANGUINEUS; [4]) | Percent control R. sanguineus (R. SANGUINEUS; [5]) [%] | Percent control R. sanguineus (R. SANGUINEUS; [6]) [%] | Percent control R. sanguineus (R. SANGUINEUS; [7]) [%] | Percent control R. sanguineus (R. SANGUINEUS; [8]) [%] | other results |
| --- | --- | --- | --- | --- | --- | --- | --- | --- | --- | --- | --- | --- | --- | --- | --- | --- | --- | --- | --- | --- | --- |
| CO[C@H]1C[C@H](O[C@@H]2/C(C)=C/C[C@@H]3C[C@@H](C[C@]4(CC[C@H](C)[C@@H](C5CCCCC5)O4)O3)OC(=O)[C@@H]3C=C(C)/C(=N/O)[C@H]4OC/C(=C\C=C\[C@@H]2C)[C@]43O)O[C@@H](C)[C@@H]1O [Selamectin, selamectin] | 26.2% | 46.7% | 70.8 | 23.1 | 61.2 | 83% and 83.2% | 16.6 | 32.7 | 46.1 | 2.7 | −0.6 | 24.7 | 0.1 | −13.1 | 48.5 | 87% and 87.4% | 83.9 | 83.6 | 95.6 | 21.5 | Percent control R. sanguineus (R. SANGUINEUS; [9]): 46.0%; Percent control R. sanguineus (R. SANGUINEUS; [10]): 70.9%; Percent control R. sanguineus (R. SANGUINEUS; [11]): −7.0%; Percent control R. sanguineus (R. SANGUINEUS; [12]): −2.2%; Percent control R. sanguineus (R. SANGUINEUS; [13]): 8.2%; Percent control R. sanguineus (R. SANGUINEUS; [14]): −16.0%; tick killing of R. sanguineus (in words) (R. SANGUINEUS; by day 16 post application): negligent; flea kill compared with imidacloprid or the combination (in words) (FLEAS (Siphoneptera)): not as effective as either imidacloprid or the combination of imidacloprid and permethrin; Percent control fleas (FLEAS (Siphoneptera); [15]): 87.3%; Percent control fleas (FLEAS (Siphoneptera); [16]): 100%; Percent control fleas (FLEAS (Siphoneptera); [17]): 100%; Percent control fleas (FLEAS (Siphoneptera); [18]): 100%; Percent control fleas (FLEAS (Siphoneptera); [19]): 99.7%; Percent control fleas (FLEAS (Siphoneptera); [20]): 100%; Percent control fleas (FLEAS (Siphoneptera); [21]): 99.8%; Percent control fleas (FLEAS (Siphoneptera); [22]): 100%; Percent control fleas (FLEAS (Siphoneptera); [23]): 86%; Percent control fleas (FLEAS (Siphoneptera); [24]): 98%; Percent control fleas (FLEAS (Siphoneptera); Day −1 (pretreatment count)): 15.1%; time required to demonstrate a significant killing of fleas (FLEAS (Siphoneptera); single topical treatment): 3 days |
| N#Cc1nn(-c2c(Cl)cc(C(F)(F)F)cc2Cl)c(N)c1[S+]([O-])C(F)(F)F (stereo not drawn) [Fipronil, fipronil] | *92.9% | *100% | 100 | 100 | 100 | 100% | 98.7 | 100 | 100 | 92.7 | 98.7 | 100 | 69.7 | 96.3 | 100 | 100% | 100 | 100 | 100 | 99.4 | Percent control R. sanguineus (R. SANGUINEUS; [9]): 100%; Percent control R. sanguineus (R. SANGUINEUS; [10]): 99.4%; Percent control R. sanguineus (R. SANGUINEUS; [11]): 86.0%; Percent control R. sanguineus (R. SANGUINEUS; [12]): 100%; Percent control R. sanguineus (R. SANGUINEUS; [13]): 100%; Percent control R. sanguineus (R. SANGUINEUS; [14]): 65.3%; onset of tick kill (in words) ([1]; both tick species): early kill, similar to that of the combination of permethrin and imidacloprid; flea kill compared with imidacloprid or the combination (in words) (FLEAS (Siphoneptera)): rate of flea kill equal to that of imidacloprid or the combination of imidacloprid and permethrin; Percent control fleas (FLEAS (Siphoneptera); [15]): 100%; Percent control fleas (FLEAS (Siphoneptera); [16]): 100%; Percent control fleas (FLEAS (Siphoneptera); [17]): 100%; Percent control fleas (FLEAS (Siphoneptera); [18]): 100%; Percent control fleas (FLEAS (Siphoneptera); [19]): 100%; Percent control fleas (FLEAS (Siphoneptera); [20]): 100%; Percent control fleas (FLEAS (Siphoneptera); [21]): 100%; Percent control fleas (FLEAS (Siphoneptera); [22]): 100%; Percent control fleas (FLEAS (Siphoneptera); [23]): 100%; Percent control fleas (FLEAS (Siphoneptera); [24]): 100%; Percent control fleas (FLEAS (Siphoneptera); Day −1 (pretreatment count)): 22.4% |
| CC1(C)C(C=C(Cl)Cl)C1C(=O)OCc1cccc(Oc2ccccc2)c1 (stereo not drawn) [Permethrin] | 36.2% | 53.9% | 75.3 | 95.2 | 96.1 | 97.1% | 91.5 | 92.9 | 96.8 | 90.8 | 85.1 | 89.3 | 79.3 | 72.7 | 75.0 | 85.0% | 99.4 | 100 | 99.0 | 95.2 | Percent control R. sanguineus (R. SANGUINEUS; [9]): 98.9%; Percent control R. sanguineus (R. SANGUINEUS; [10]): 99.4%; Percent control R. sanguineus (R. SANGUINEUS; [11]): 89.4%; Percent control R. sanguineus (R. SANGUINEUS; [12]): 91.7%; Percent control R. sanguineus (R. SANGUINEUS; [13]): 91.5%; Percent control R. sanguineus (R. SANGUINEUS; [14]): 68.6%; time required to approach a 100% killing of ticks ([1]; single topical treatment): 7 days; Percent control fleas (FLEAS (Siphoneptera); [15]): 89.8%; Percent control fleas (FLEAS (Siphoneptera); [16]): 93.9%; Percent control fleas (FLEAS (Siphoneptera); [17]): 79.4%; Percent control fleas (FLEAS (Siphoneptera); [18]): 87.8%; Percent control fleas (FLEAS (Siphoneptera); [19]): 71.9%; Percent control fleas (FLEAS (Siphoneptera); [20]): 65.1%; Percent control fleas (FLEAS (Siphoneptera); [21]): 52.9%; Percent control fleas (FLEAS (Siphoneptera); [22]): 41.9%; Percent control fleas (FLEAS (Siphoneptera); [23]): 43.9%; Percent control fleas (FLEAS (Siphoneptera); [24]): 7.7%; Percent control fleas (FLEAS (Siphoneptera); Day −1 (pretreatment count)): 1.5%; killing of fleas (in words) (FLEAS (Siphoneptera); from day 1 through day 21): some killing effect on fleas |
| O=[N+]([O-])N=C1NCCN1Cc1ccc(Cl)nc1 [Imidacloprid, 1-[(6-chloro-3-pyridinyl)methyl]-N-nitro-2-imidazolidinimine] | −12.0% | 16.9% | 30.9 | 32.5 | 35.3 | 39.4% | 50.3 | 66.4 | 68.4 | 50.2 | 40.1 | 50.2 | 38.8 | 15.5 | 42.4 | 35.9% | 67.2 | 72.0 | 66.6 | 53.5 | Percent control R. sanguineus (R. SANGUINEUS; [9]): 58.2%; Percent control R. sanguineus (R. SANGUINEUS; [10]): 54.0%; Percent control R. sanguineus (R. SANGUINEUS; [11]): 41.5%; Percent control R. sanguineus (R. SANGUINEUS; [12]): 18.9%; Percent control R. sanguineus (R. SANGUINEUS; [13]): −5.3%; Percent control R. sanguineus (R. SANGUINEUS; [14]): 39.1%; Percent control fleas (FLEAS (Siphoneptera); [15]): 100%; Percent control fleas (FLEAS (Siphoneptera); [16]): 100%; Percent control fleas (FLEAS (Siphoneptera); [17]): 100%; Percent control fleas (FLEAS (Siphoneptera); [18]): 100%; Percent control fleas (FLEAS (Siphoneptera); [19]): 100%; Percent control fleas (FLEAS (Siphoneptera); [20]): 100%; Percent control fleas (FLEAS (Siphoneptera); [21]): 100%; Percent control fleas (FLEAS (Siphoneptera); [22]): 99.6%; Percent control fleas (FLEAS (Siphoneptera); [23]): 98.6%; Percent control fleas (FLEAS (Siphoneptera); [24]): 99.4%; Percent control fleas (FLEAS (Siphoneptera); Day −1 (pretreatment count)): 5.4%; killing of fleas (in words) (FLEAS (Siphoneptera); from day 1 through day 30): killed essentially all of the fleas |
